Source: patent publication US9834542B2, “LXR modulators” (BRISTOL-MYERS SQUIBB COMPANY, priority 2013, dated 2017)

Target: T1, LXRβ (Homo sapiens, UniProt P55055)
T1 construct: Co-transfection expression plasmids, comprising full-length LXRα (pCMX-h LXRα[…] or LXRβ (pCMX-hLXRβ)); expressed in transfected cells; host or cells: CV-1 African Green Monkey Kidney Cells
T1 sequence (P55055 1-460): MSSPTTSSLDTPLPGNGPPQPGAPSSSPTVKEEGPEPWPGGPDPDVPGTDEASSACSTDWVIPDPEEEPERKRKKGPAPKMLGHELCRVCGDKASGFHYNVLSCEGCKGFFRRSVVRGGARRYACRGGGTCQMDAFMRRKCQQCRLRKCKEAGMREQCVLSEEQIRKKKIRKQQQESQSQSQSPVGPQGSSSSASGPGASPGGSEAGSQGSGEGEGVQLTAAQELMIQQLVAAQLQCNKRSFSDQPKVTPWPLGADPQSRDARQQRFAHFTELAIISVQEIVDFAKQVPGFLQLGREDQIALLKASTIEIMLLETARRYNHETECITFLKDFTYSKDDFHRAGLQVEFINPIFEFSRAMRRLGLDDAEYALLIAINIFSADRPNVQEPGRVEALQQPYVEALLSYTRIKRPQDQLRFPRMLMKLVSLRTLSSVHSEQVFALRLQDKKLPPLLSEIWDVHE
T1 sequence (P19793 1-462 partner): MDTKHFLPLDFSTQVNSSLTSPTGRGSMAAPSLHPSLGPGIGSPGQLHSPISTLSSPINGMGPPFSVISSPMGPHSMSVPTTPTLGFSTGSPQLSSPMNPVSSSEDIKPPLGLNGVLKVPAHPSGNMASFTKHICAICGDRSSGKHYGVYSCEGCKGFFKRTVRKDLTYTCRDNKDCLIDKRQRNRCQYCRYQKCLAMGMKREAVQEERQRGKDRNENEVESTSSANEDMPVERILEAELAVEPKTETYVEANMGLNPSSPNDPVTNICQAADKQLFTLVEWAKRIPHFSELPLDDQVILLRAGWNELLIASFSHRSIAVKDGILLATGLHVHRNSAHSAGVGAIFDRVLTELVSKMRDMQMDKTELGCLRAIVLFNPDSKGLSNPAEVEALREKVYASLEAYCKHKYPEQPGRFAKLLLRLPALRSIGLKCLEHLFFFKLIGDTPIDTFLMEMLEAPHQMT
Assay: Co-transfection assay (LXRE luciferase reporter), LXRβ
Assay type: cell-based
Settings: for EC50: CV-1 cells transfected with pCMX-hLXRβ and LXREx1-Tk-Luciferase, 20 hours incubation; for Emax: LXRβ co-transfection, relative to high control 1-(2,4-difluorobenzyl)-2-oxo-6-(4-phenoxyphenyl)-4-(trifluoromethyl)-1,2-dihydropyridine-3-carbonitrile, read-out: % Efficacy
Summary of the method: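 Luciferase signal from an LXREx1-Tk reporter was measured after transfected CV-1 cells (full-length hLXRβ, endogenous RXR) were treated with compounds for 20 h at 37 °C, ≤0.5% DMSO. EC50 came from four-parameter fits of 11-point ½-log curves; % efficacy versus a reference agonist maximum.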

EC50	Emax	SMILES
790 nM	81%	Cc1nc(C(F)(F)F)cn1-c1ccc(-c2cc(F)c(CO)c(S(C)(=O)=O)c2)cc1-c1oc(CCO)nc1-c1ccc2c(c1)OC(F)(F)O2 [Example 621, 2-(4-(2,2-difluorobenzo[d][1,3]dioxol-5-yl)-5-(3′-fluoro-4′-(hydroxymethyl)-4-(2-methyl-4-(trifluoromethyl)-1H-imidazol-1-yl)-5′-(methylsulfonyl)-[1,1′-biphenyl]-3-yl)oxazol-2-yl)ethanol]
129 nM	81%	Cc1nc(C(F)(F)F)cn1-c1ccc(-c2cc(F)c(CO)c(S(C)(=O)=O)c2)cc1-c1nc(C2CC2)cn1-c1ccc2c(c1)OC(F)(F)O2 [Example 639, (3′-(4-cyclopropyl-1-(2,2-difluorobenzo[d][1,3]dioxol-5-yl)-1H-imidazol-2-yl)-3-fluoro-4′-(2-methyl-4-(trifluoromethyl)-1H-imidazol-1-yl)-5-(methylsulfonyl)biphenyl-4-yl)methanol]
175 nM	90%	Cc1nc(C(F)(F)F)cn1-c1ccc(-c2cccc(S(C)(=O)=O)c2)cc1-n1nncc1-c1ccc(OC(F)(F)F)c(Cl)c1 [Example 53, 5-{3-chloro-4-[(trifluoromethyl)oxy]phenyl}-1-{3′-(methylsulfonyl)-4-[2-methyl-4-(trifluoromethyl)-1H-imidazol-1-yl]biphenyl-3-yl}-1H-1,2,3-triazole]
606 nM	90%	Cc1nc(C(F)(F)F)cn1-c1ccc(-c2cccc(S(C)(=O)=O)c2)cc1-n1nncc1-c1ccc(OCC(F)(F)F)cc1 [Example 31, 1-{3′-(methylsulfonyl)-4-[2-methyl-4-(trifluoromethyl)-1H-imidazol-1-yl]biphenyl-3-yl}-5-{4-[(2,2,2-trifluoroethyl)oxy]phenyl}-1H-1,2,3-triazole]
110 nM	98%	CS(=O)(=O)c1cc(-c2ccc(-n3cc(C(F)(F)F)nc3Cl)c(-n3nncc3-c3ccc(Cl)cc3)c2)cc(F)c1CO [Example 144, {3′-[5-(4-chlorophenyl)-1H-1,2,3-triazol-1-yl]-4′-[2-chloro-4-(trifluoromethyl)-1H-imidazol-1-yl]-3-fluoro-5-(methylsulfonyl)biphenyl-4-yl}methanol]
111 nM	69%	Cc1nc(C(F)(F)C(C)C)cn1-c1ccc(-c2cc(F)c(CO)c(S(C)(=O)=O)c2)cc1-n1nncc1-c1ccc(OC(F)(F)F)cc1 [Example 221, (4′-(4-(1,1-difluoro-2-methylpropyl)-2-methyl-1H-imidazol-1-yl)-3-fluoro-5-(methylsulfonyl)-3′-(5-(4-(trifluoromethoxy)phenyl)-1H-1,2,3-triazol-1-yl)-[1,1′-biphenyl]-4-yl)methanol]
633 nM	84%	Cc1nc(C(F)(F)F)cn1-c1ccc(-c2cccc(S(C)(=O)=O)c2)cc1-n1nncc1-c1ccc(SC(F)(F)F)cc1 [Example 32, 1-{3′-(methylsulfonyl)-4-[2-methyl-4-(trifluoromethyl)-1H-imidazol-1-yl]biphenyl-3-yl}-5-{4-[(trifluoromethyl)thio]phenyl}-1H-1,2,3-triazole]
31 nM	96%	Cc1nc(-c2ccc3c(c2)OC(F)(F)O3)c(-c2cc(-c3cccc(S(C)(=O)=O)c3)ccc2-n2cc(C(F)(F)F)nc2C)o1 [Example 615, 4-(2,2-difluorobenzo[d][1,3]dioxol-5-yl)-2-methyl-5-(4-(2-methyl-4-(trifluoromethyl)-1H-imidazol-1-yl)-3′-(methylsulfonyl)-[1,1′-biphenyl]-3-yl)oxazol]
465 nM	77%	Cc1nc(-c2cc(-c3cccc(S(C)(=O)=O)c3)ccc2-n2cc(C(F)(F)F)nc2C)c(-c2ccc3c(c2)C(O)C(F)(F)O3)o1 (centres unmarked) [Example 368, 2,2-difluoro-5-(2-methyl-4-(4-(2-methyl-4-(trifluoromethyl)-1H-imidazol-1-yl)-3′-(methylsulfonyl)biphenyl-3-yl)oxazol-5-yl)-2,3-dihydrobenzofuran-3-ol]
17 nM	77%	Cc1cc(-c2cc(-c3cc(F)c(CO)c(S(C)(=O)=O)c3)ccc2-n2cc(C(F)(F)F)nc2C)n(-c2ccc3c(c2)OC(F)(F)O3)n1 [Example 299, (3′-(1-(2,2-difluorobenzo[d][1,3]dioxol-5-yl)-3-methyl-1H-pyrazol-5-yl)-3-fluoro-4′-(2-methyl-4-(trifluoromethyl)-1H-imidazol-1-yl)-5-(methylsulfonyl)biphenyl-4-yl)methanol]
58 nM	76%	Cc1nc(-c2cc(-c3cc(F)c(CO)c(S(C)(=O)=O)c3)ccc2-n2cc(C(F)(F)F)nc2C)c(-c2cc(F)c(OC(F)F)c(F)c2)o1 [Example 457, (3′-(5-(4-(difluoromethoxy)-3,5-difluorophenyl)-2-methyloxazol-4-yl)-3-fluoro-4′-(2-methyl-4-(trifluoromethyl)-1H-imidazol-1-yl)-5-(methylsulfonyl)biphenyl-4-yl)methanol]
583 nM	77%	Cc1nc(C(F)(F)F)cn1-c1ccc(-c2cccc(S(C)(=O)=O)c2)cc1-n1nncc1-c1ccc2occc2c1 [Example 86, 5-(1-benzofuran-5-yl)-1-{3′-(methylsulfonyl)-4-[2-methyl-4-(trifluoromethyl)-1H-imidazol-1-yl]biphenyl-3-yl}-1H-1,2,3-triazole]
109 nM	89%	Cc1nc(-c2cc(-c3cccc(S(C)(=O)=O)c3)ccc2-n2cc(C(F)(F)F)nc2C)c(-c2ccc(Cl)cc2Cl)o1 [Example 486, 5-(2,4-dichlorophenyl)-2-methyl-4-(4-(2-methyl-4-(trifluoromethyl)-1H-imidazol-1-yl)-3′-(methylsulfonyl)biphenyl-3-yl)oxazole]
84 nM	43%	Cc1nc(-c2cc(-c3cc(F)c(CO)c(S(C)(=O)=O)c3)ccc2-n2cc(C(F)(F)F)nc2C)c(-c2ccccc2OC(F)F)o1 [Example 548, (3′-(5-(2-(difluoromethoxy)phenyl)-2-methyloxazol-4-yl)-3-fluoro-4′-(2-methyl-4-(trifluoromethyl)-1H-imidazol-1-yl)-5-(methylsulfonyl)-[1,1′-biphenyl]-4-yl)methanol]
502 nM	93%	CCS(=O)(=O)c1cc(-c2ccc(-n3cc(C(F)(F)F)nc3C)c(-n3nncc3-c3ccc(OC(F)(F)F)cc3)c2)cc(F)c1CO [Example 92, [3-(ethylsulfonyl)-5-fluoro-4′-[2-methyl-4-(trifluoromethyl)-1H-imidazol-1-yl]-3′-(5-{4-[(trifluoromethyl)oxy]phenyl}-1H-1,2,3-triazol-1-yl)biphenyl-4-yl]methanol]
605 nM	85%	CCCCOc1ccc(-c2cnnn2-c2cc(-c3cccc(S(C)(=O)=O)c3)ccc2-n2cc(C(F)(F)F)nc2C)cc1 [Example 30, 5-[4-(butyloxy)phenyl]-1-{3′-(methylsulfonyl)-4-[2-methyl-4-(trifluoromethyl)-1H-imidazol-1-yl]biphenyl-3-yl}-1H-1,2,3-triazole]
158 nM	89%	Cc1ccc(-c2cnnn2-c2cc(-c3cc(F)c(CO)c(S(C)(=O)=O)c3)ccc2-n2cc(C(F)(F)F)nc2C)cc1 [Example 48, {3-fluoro-3′-[5-(4-methylphenyl)-1H-1,2,3-triazol-1-yl]-5-(methylsulfonyl)-4′-[2-methyl-4-(trifIuoromethyl)-1H-imidazol-1-yl]biphenyl-4-yl}methanol]
57 nM	45%	Cc1nc(-c2cc(-c3cc(F)c(CO)c(S(C)(=O)=O)c3)ccc2-n2cc(C(F)(F)F)nc2C)c(-c2cc(Cl)cc(Cl)c2)o1 [Example 456, (3′-(5-(3,5-dichlorophenyl)-2-methyloxazol-4-yl)-3-fluoro-4′-(2-methyl-4-(trifluoromethyl)-1H-imidazol-1-yl)-5-(methylsulfonyl)biphenyl-4-yl)methanol]
203 nM	71%	Cc1nc(-c2cc(-c3cccc(S(C)(=O)=O)c3)ccc2-n2cc(C(F)(F)F)nc2C)c(-c2ccc(OCC(F)F)c(F)c2)o1 [Example 425, 5-(4-(2,2-difluoroethoxy)-3-fluorophenyl)-2-methyl-4-(4-(2-methyl-4-(trifluoromethyl)-1H-imidazol-1-yl)-3′-(methylsulfonyl)biphenyl-3-yl)oxazole]
